# PubChem BioAssay AID330 (DTP/NCI, 2004)
# Several values for one entry are separate records, joined by “and”; a condition that tells them apart may be missing. Equal entries are not always repeated. Inconclusive results and toxic doses are left out. Peptide text beside a SMILES is read from it. * marks the point of attachment. Cbz = O=C(OCc1ccccc1)*
# Tested on: P388 leukemia ip, CD2F1 mice, survival T/C
# Test: NCI In Vivo Anticancer Drug Screen. Data for tumor model P388 Leukemia (intraperitoneal) in CD2F1 (CDF1) mice
# Conditions: endpoint: median survival time, higher = longer survival
# In short: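 Mice carrying the transplanted tumor received test compound or vehicle. Survival was recorded in each group, and the value is the treated-group measurement divided by that of the vehicle-treated control group.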
# [1] = dose: 50.0 mg/kg/injection, schedule: Q01DX005 (ip), vehicle: Klucel (hydroxypropylcellulose) (HPC)
# [2] = dose: 100.0 mg/kg/injection, schedule: Q01DX005 (ip), vehicle: Klucel (hydroxypropylcellulose) (HPC)
# [3] = dose: 50.0 mg/kg/injection, schedule: Q01DX005 (ip), vehicle: saline with Tween-80
# [4] = dose: 100.0 mg/kg/injection, schedule: Q01DX005 (ip), vehicle: saline with Tween-80
# [5] = dose: 200.0 mg/kg/injection, schedule: Q01DX005 (ip), vehicle: saline with Tween-80
# [6] = dose: 100.0 mg/kg/injection, schedule: Q01DX009 (ip), vehicle: saline with Tween-80
# [7] = dose: 200.0 mg/kg/injection, schedule: Q01DX009 (ip), vehicle: saline with Tween-80
# [8] = dose: 60.0 mg/kg/injection, schedule: Q01DX005 (ip), vehicle: saline with Tween-80
# [9] = dose: 120.0 mg/kg/injection, schedule: Q01DX005 (ip), vehicle: saline with Tween-80
# [10] = dose: 240.0 mg/kg/injection, schedule: Q01DX005 (ip), vehicle: saline with Tween-80
# [11] = dose: 50.0 mg/kg/injection, schedule: Q01DX009 (ip), vehicle: saline with Tween-80
smiles,measurement,setting,value
COC(=O)/C(C#N)=C/c1ccco1,T/C,[1],98 % of control
same,T/C,[2],98 % of control
CCOC(=O)C(=CNc1cc(OC)cc2cccnc12)C(=O)OCC,T/C,[1],96 % of control
same,T/C,[2],88 % of control
same,T/C,"dose: 200.0 mg/kg/injection, schedule: Q01DX005 (ip), vehicle: Klucel (hydroxypropylcellulose) (HPC)",88 % of control
O=C1CSc2nc3ccc(Br)cc3c(=O)n21,T/C,[3],100 % of control
same,T/C,[4],95 % of control
same,T/C,[5],111 % of control
O=C(Nc1ccc(Br)cc1)c1ccccc1,T/C,[6],95 % of control
same,T/C,[7],90 % of control
same,T/C,"dose: 400.0 mg/kg/injection, schedule: Q01DX009 (ip), vehicle: saline with Tween-80",100 % of control
CC(C)COC1CN=NN1/C=C1\CCOC1=O (configuration not stated),T/C,[8],102 % of control
same,T/C,[9],107 % of control
same,T/C,[10],100 % of control
CN(c1ccccc1)P(C)(Cl)(c1ccccc1)c1ccccc1,T/C,"dose: 1.56 mg/kg/injection, schedule: Q01DX009 (ip), vehicle: saline with Tween-80",101 % of control
same,T/C,"dose: 3.13 mg/kg/injection, schedule: Q01DX009 (ip), vehicle: saline with Tween-80",109 % of control
same,T/C,"dose: 6.25 mg/kg/injection, schedule: Q01DX009 (ip), vehicle: saline with Tween-80",118 % of control
O=C(O)C(CO)NC(=O)C1CCCN1C(=O)OCc1ccccc1 (stereo not drawn) (Cbz-Pro-Ser-OH; configuration not given here),T/C,"dose: 50.0 mg/kg/injection, schedule: Q01DX005 (ip), vehicle: saline",96 % of control
same,T/C,"dose: 100.0 mg/kg/injection, schedule: Q01DX005 (ip), vehicle: saline",93 % of control
CC(=O)Nc1cc(NC(C)=O)cc(C(=O)O)c1,T/C,"dose: 60.0 mg/kg/injection, schedule: Q01DX005 (ip), vehicle: Klucel (hydroxypropylcellulose) (HPC)",90 % of control
same,T/C,"dose: 120.0 mg/kg/injection, schedule: Q01DX005 (ip), vehicle: Klucel (hydroxypropylcellulose) (HPC)",90 % of control
same,T/C,"dose: 240.0 mg/kg/injection, schedule: Q01DX005 (ip), vehicle: Klucel (hydroxypropylcellulose) (HPC)",90 % of control
COC(=O)c1nn2c(=O)n(C(C)=O)c3ccccc3c2c1C(=O)OC,T/C,[8],108 % of control
same,T/C,[9],109 % of control
same,T/C,[10],108 % of control
C/C(=N/N(C)C)c1ccncc1,T/C,"dose: 50.0 mg/kg/injection, schedule: Q01DX009 (ip), vehicle: Klucel (hydroxypropylcellulose) (HPC)",104 % of control
same,T/C,"dose: 100.0 mg/kg/injection, schedule: Q01DX009 (ip), vehicle: Klucel (hydroxypropylcellulose) (HPC)",107 % of control
same,T/C,"dose: 200.0 mg/kg/injection, schedule: Q01DX009 (ip), vehicle: Klucel (hydroxypropylcellulose) (HPC)",113 % of control
Cc1ccc(C(=O)NN2C(N)=NC(N)=NC2(C)C)cc1,T/C,"dose: 50.0 mg/kg/injection, schedule: Q04DX003 (ip), vehicle: saline",100 % of control
same,T/C,"dose: 100.0 mg/kg/injection, schedule: Q04DX003 (ip), vehicle: saline",105 % of control
Cc1noc(NS(=O)(=O)c2ccc(N=Nc3cc(N=Nc4ccc(S(=O)(=O)Nc5onc(C)c5C)cc4)c4c(NC(=O)C(Cl)Cl)cccc4c3OC(=O)C(Cl)Cl)cc2)c1C,T/C,[11],94 % of control
same,T/C,[6],100 % of control
COc1cccc2c1C(=O)c1c(O)c3c(c(O)c1C2=O)CC(O)(C(=O)COc1ccccc1)CC3OC1CC(NC(=O)C(F)(F)F)C(O)C(C)O1 (configuration not stated),T/C,"dose: 1.56 mg/kg/injection, schedule: Q01DX009 (ip), vehicle: other",98 % of control and 102 % of control
same,T/C,"dose: 3.13 mg/kg/injection, schedule: Q01DX009 (ip), vehicle: other",102 % of control and 110 % of control
same,T/C,"dose: 12.5 mg/kg/injection, schedule: Q01DX009 (ip), vehicle: other",105 % of control
same,T/C,"dose: 25.0 mg/kg/injection, schedule: Q01DX009 (ip), vehicle: other",114 % of control
Cn1c(=O)[nH]c(=O)c2nc(-c3ccc(Cl)c(Cl)c3)cnc21,T/C,[11],104 % of control
same,T/C,[6],101 % of control
same,T/C,[7],99 % of control
O=[N+]([O-])c1cc([N+](=O)[O-])c2ccccc2c1NS(=O)(=O)c1ccc(Br)cc1,T/C,"dose: 25.0 mg/kg/injection, schedule: Q01DX009 (ip), vehicle: saline with Tween-80",103 % of control
same,T/C,[11],117 % of control
c1ccc(-c2cnn3nnnc3n2)cc1,T/C,"dose: 100.0 mg/kg/injection, schedule: Q01DX001 (ip), vehicle: saline",104 % of control
same,T/C,"dose: 200.0 mg/kg/injection, schedule: Q01DX001 (ip), vehicle: saline",102 % of control
same,T/C,"dose: 400.0 mg/kg/injection, schedule: Q01DX001 (ip), vehicle: saline",101 % of control
Cc1cc(C)c(C#N)c(Sc2nc(C)c([N+](=O)[O-])c(C)c2C#N)n1,T/C,[3],96 % of control
same,T/C,[4],100 % of control
same,T/C,[5],102 % of control
